{"source": "paper PMC7827406", "about": "“Structure–Activity Relationship (SAR) Study of Spautin-1 to Entail the Discovery of Novel NEK4 Inhibitors” (International Journal of Molecular Sciences, 2021)", "assay_in_all_cases": "biochemical", "parameters_in_all_cases": "Eurofins KinaseProfiler full panel at Km ATP, residual kinase activity (%) relative to DMSO", "key": {"Flt3(D835Y)(h)": {"biological_target": "T1, Flt3(D835Y)(h) (Homo sapiens, UniProt P36888, D835Y)", "T1 sequence (P36888 1-993 D835Y)": "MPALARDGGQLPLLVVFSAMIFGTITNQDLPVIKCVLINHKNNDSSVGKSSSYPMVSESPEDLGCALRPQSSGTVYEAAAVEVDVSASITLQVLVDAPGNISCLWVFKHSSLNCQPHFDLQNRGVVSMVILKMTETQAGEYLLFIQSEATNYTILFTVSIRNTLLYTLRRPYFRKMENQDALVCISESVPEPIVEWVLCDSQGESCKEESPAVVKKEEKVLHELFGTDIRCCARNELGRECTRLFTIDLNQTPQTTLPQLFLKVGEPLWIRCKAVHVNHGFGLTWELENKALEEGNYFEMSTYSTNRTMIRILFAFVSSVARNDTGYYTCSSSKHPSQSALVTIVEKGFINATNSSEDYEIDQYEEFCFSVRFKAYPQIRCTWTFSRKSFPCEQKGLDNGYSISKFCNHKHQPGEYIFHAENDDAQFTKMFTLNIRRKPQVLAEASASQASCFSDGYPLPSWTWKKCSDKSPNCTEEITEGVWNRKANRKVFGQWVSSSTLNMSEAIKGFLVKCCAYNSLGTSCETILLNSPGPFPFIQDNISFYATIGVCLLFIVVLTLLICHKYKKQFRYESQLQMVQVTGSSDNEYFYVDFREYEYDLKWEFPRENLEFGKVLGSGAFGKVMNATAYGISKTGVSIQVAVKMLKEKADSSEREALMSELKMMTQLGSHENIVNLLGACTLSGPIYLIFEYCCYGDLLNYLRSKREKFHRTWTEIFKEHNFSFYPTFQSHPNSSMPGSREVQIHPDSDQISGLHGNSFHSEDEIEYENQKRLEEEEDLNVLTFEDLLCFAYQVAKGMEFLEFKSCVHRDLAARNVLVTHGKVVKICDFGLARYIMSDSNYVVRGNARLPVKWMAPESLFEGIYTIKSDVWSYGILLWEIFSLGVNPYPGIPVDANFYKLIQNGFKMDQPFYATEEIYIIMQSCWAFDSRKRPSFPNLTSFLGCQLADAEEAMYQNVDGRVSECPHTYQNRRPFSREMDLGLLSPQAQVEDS", "how_it_was_run": "(§1)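 Compounds screened at 10 µM in radiometric kinase activity assays at Km ATP, reported as remaining kinase activity (%). A KINOMEscan competition-binding screen at 10 µM measured DNA-tagged kinase retained on immobilized active-site ligand by qPCR.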"}, "AAK1(h)": {"biological_target": "AAK1(h) (Homo sapiens, UniProt Q2M2I8)", "sequence (Q2M2I8 whole entry)": "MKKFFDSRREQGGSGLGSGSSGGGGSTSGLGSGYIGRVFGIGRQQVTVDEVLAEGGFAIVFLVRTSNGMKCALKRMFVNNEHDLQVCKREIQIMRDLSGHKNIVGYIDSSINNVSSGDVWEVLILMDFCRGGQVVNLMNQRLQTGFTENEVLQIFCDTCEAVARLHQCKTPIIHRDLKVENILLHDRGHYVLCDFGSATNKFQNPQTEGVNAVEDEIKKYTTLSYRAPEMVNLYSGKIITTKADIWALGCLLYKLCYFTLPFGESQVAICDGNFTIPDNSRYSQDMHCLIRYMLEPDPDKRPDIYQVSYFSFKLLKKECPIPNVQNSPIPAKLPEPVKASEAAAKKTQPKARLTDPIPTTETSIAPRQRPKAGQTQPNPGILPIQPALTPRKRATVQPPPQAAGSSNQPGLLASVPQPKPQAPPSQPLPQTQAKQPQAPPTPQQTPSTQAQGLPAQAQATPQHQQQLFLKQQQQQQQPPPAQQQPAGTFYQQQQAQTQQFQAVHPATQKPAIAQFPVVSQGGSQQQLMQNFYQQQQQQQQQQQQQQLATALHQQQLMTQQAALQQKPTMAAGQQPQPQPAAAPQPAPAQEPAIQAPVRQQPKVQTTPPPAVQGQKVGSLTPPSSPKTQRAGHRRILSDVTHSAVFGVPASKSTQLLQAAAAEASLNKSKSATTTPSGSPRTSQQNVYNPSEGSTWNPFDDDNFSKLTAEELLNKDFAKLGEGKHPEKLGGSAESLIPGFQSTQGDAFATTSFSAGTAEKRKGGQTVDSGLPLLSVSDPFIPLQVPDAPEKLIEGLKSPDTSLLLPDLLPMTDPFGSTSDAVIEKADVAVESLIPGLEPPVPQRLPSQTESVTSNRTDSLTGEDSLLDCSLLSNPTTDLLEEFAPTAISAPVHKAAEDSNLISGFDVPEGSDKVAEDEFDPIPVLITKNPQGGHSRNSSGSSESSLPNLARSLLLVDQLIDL", "how_it_was_run": "as §1"}, "PKR(h)": {"biological_target": "T2, PKR(h) (Homo sapiens, UniProt P19525)", "T2 construct": "gene EIF2AK2", "T2 sequence (P19525 whole entry)": "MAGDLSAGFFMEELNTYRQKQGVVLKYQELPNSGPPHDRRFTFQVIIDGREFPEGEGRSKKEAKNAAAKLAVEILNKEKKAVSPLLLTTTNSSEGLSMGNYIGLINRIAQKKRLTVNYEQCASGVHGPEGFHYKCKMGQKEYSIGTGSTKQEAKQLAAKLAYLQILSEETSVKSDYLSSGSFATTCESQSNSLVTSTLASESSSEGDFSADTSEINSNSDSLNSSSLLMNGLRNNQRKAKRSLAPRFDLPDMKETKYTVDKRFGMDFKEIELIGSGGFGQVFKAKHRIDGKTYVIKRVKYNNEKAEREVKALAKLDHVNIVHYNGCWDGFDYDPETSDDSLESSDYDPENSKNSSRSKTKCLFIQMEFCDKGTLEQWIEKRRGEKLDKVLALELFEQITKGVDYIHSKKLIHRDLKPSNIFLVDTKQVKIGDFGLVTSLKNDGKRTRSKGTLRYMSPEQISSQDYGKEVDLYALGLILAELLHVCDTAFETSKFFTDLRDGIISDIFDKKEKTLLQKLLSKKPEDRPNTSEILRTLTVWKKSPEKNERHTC", "how_it_was_run": "as §1"}, "A-Raf(h)": {"biological_target": "T3, A-Raf(h) (Homo sapiens, UniProt P10398)", "T3 construct": "gene ARAF", "T3 sequence (P10398 1-606)": "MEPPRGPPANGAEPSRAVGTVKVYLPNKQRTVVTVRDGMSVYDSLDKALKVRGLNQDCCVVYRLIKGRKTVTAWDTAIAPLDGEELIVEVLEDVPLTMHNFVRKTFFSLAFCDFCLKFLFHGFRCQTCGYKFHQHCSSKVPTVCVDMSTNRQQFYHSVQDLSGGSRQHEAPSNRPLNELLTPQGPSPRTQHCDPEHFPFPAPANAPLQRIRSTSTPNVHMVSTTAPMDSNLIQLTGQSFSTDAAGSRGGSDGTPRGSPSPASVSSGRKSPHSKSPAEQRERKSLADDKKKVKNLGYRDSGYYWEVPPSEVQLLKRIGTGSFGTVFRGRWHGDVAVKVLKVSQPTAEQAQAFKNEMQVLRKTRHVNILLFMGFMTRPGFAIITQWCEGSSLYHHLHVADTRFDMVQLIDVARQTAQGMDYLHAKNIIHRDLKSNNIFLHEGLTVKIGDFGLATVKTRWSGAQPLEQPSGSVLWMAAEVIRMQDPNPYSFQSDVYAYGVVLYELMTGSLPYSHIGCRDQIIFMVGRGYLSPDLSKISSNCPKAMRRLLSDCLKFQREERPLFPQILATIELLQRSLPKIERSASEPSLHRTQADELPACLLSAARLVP", "how_it_was_run": "as §1"}, "[1]": {"settings": "read-out: Residual activity (%) 5ay"}, "[2]": {"settings": "read-out: Residual activity (%) Spautin-1 5aa"}, "[3]": {"settings": "read-out: Residual activity (%) 5at"}, "[4]": {"settings": "read-out: Residual activity (%) 5as"}}, "note": "Where two headings read alike, the source gives them in different places."}
{"smiles": "COc1ccc2ncnc(Nc3cccc(F)c3)c2c1", "note": "[5ay, N-(3-Fluorophenyl)-6-Methoxy-4-Quinazolinamine]", "values": [{"measurement": "remaining activity at 10 µM", "setting": "Flt3(D835Y)(h); [1]", "result": 49, "unit": "%"}, {"measurement": "remaining activity at 10 µM", "setting": "AAK1(h); [1]", "result": 53, "unit": "%"}, {"measurement": "remaining activity at 10 µM", "setting": "PKR(h); [1]", "result": 71, "unit": "%"}, {"measurement": "remaining activity at 10 µM", "setting": "A-Raf(h); [1]", "result": 100, "unit": "%"}]}
{"smiles": "Fc1ccc(CNc2ncnc3ccc(F)cc23)cc1", "note": "[5aa, 6-Fluoro-N-(4-fluorobenzyl)-4-Quinazolinamine]", "values": [{"measurement": "remaining activity at 10 µM", "setting": "Flt3(D835Y)(h); [2]", "result": 91, "unit": "%"}, {"measurement": "remaining activity at 10 µM", "setting": "AAK1(h); [2]", "result": 95, "unit": "%"}, {"measurement": "remaining activity at 10 µM", "setting": "PKR(h); [2]", "result": 100, "unit": "%"}, {"measurement": "remaining activity at 10 µM", "setting": "A-Raf(h); [2]", "result": 103, "unit": "%"}]}
{"smiles": "Fc1ccc2ncnc(NCCc3ccc(Cl)cc3)c2c1", "note": "[5at, N-[2-(4-Chlorophenyl)Ethyl]-6-Fluoro-4-Quinazolinamine]", "values": [{"measurement": "remaining activity at 10 µM", "setting": "Flt3(D835Y)(h); [3]", "result": 80, "unit": "%"}, {"measurement": "remaining activity at 10 µM", "setting": "AAK1(h); [3]", "result": 72, "unit": "%"}, {"measurement": "remaining activity at 10 µM", "setting": "PKR(h); [3]", "result": 94, "unit": "%"}, {"measurement": "remaining activity at 10 µM", "setting": "A-Raf(h); [3]", "result": 108, "unit": "%"}]}
{"smiles": "Fc1ccc(CCNc2ncnc3ccc(F)cc23)cc1", "note": "[5as, 6-Fluoro-N-[2-(4-Fluorophenyl)Ethyl]-4-Quinazolinamine]", "values": [{"measurement": "remaining activity at 10 µM", "setting": "Flt3(D835Y)(h); [4]", "result": 87, "unit": "%"}, {"measurement": "remaining activity at 10 µM", "setting": "AAK1(h); [4]", "result": 81, "unit": "%"}, {"measurement": "remaining activity at 10 µM", "setting": "PKR(h); [4]", "result": 98, "unit": "%"}, {"measurement": "remaining activity at 10 µM", "setting": "A-Raf(h); [4]", "result": 106, "unit": "%"}]}
